Laboratory results as given in US4798832A, “Pyrido[1,2-a]pyrimidine compounds, corresponding intermediates and use as SRS-A antagonists” (Tokyo Tanabe Company, Limited, priority 1986, dated 1989).
Converted amounts (≈) assume the structure as drawn. Where a name gives a salt, the structure may show the parent alone.

Columns and labels:
[1] = In vitro test: antagonistic effect on leukotriene D4-induced contraction of excised guinea pig terminal ileum; assay type: cell-based, guinea pig (male, Hartley strain); settings: guinea pig terminal ileum contraction, leukotriene D4 0.3 ng/ml, with atropine and mepyramine; for IC50: Cavia porcellus
Protocol: (§1) The antagonistic effect on leukotriene D4 of the present compounds [I] was tested by using the terminal ileum excised from a male guinea pig of the Hartley strain. Specifically, the terminal ileum was suspended, under aerated conditions, in 10 ml of Tyrode's solution containing 5×10^-7 M atropine and 1×10^-6 M mepyramine. Then, a test compound and leukotriene D4 (manufactured by Wako Junyaku Co., Ltd.) were successively added thereto with an interval of 30 seconds. After the lapse of 4 to 6 minutes, the degree of contraction of the ileum was measured with a Model TD-112S Isotonic Transducer (manufactured by Nippon Koden Co., Ltd.). The test compound and leukotriene D4 were used in such amounts as to give concentrations of 10^-9 to 10^-3 g/ml and 0.3 ng/ml, respectively.
(§2) The antagonistic effect on leukotriene D4 of each test compound was evaluated in terms of the concentration of the test compound at which the ileum contraction reaction induced by leukotriene D4 was inhibited by 50% (hereinafter referred to as IC50) Specifically, at varying concentrations of each test compound, the percent inhibition of contraction was calculated from the measured degree of contraction of the ileum according the following equation [formula] On the basis of the data thus obtained, a dose-response curve was prepared and used to determine the IC50 value of the test compound.

leukotriene D4 = assay: as above; assay type: cell-based, guinea pig (male, Hartley strain); settings: confirmatory experiment by the inventors; result in words
Protocol: as §1, §2

[2] = Toxicity test: acute toxicity (LD50) in rats; settings: rat, in vivo
Protocol: (§3) The acute toxicity (LD50) of several typical examples of the present compounds [I] was tested of 5-weeks-old male ddY strain mice and male SD straih rats. For this purpose, the compounds of Examples 2 and 4 were selected as typical examples. […] For rats, their LD50 values were not less than 4.0 g/kg when administered orally, and not less than 200 mg/kg when administered intravenously.

[3] = Toxicity test: acute toxicity (LD50) in mice; settings: mouse, in vivo
Protocol: as §3

SMILES: CCCc1c(OCc2cc(Br)cn3c(=O)c(CCC(=O)O)cnc23)ccc(C(C)=O)c1O [Example 5, 3-[9-(4-Acetyl-3-hydroxy-2-n-propylphenoxymethyl)-7-bromo-4-oxo-pyrido[1,2-a]pyrimidin-3-yl]propionic acid]
- IC50 [1]: 0.3 µg/mL (≈ 0.596 µM)

SMILES: CCCc1c(OCc2cccn3c(=O)c(C(=O)O)cnc23)ccc(C(C)=O)c1O [Example 1, 9-(4-Acetyl-3-hydroxy-2-n-propylphenoxymethyl)-4-oxo-pyrido[1,2-a]pyrimidine-3-carboxylic acid]
- IC50 [1]: 0.03 µg/mL (≈ 0.0757 µM)

SMILES: CCCc1c(OCc2ccc3ncc(CCC(=O)O)c(=O)n3c2)ccc(C(C)=O)c1O [Example 6, 3-[7-(4-acetyl-3-hydroxy-2-n-propylphenoxymethyl)-4-oxo-pyrido[1,2-a]pyrimidin-3-yl]propionic acid]
- IC50 [1]: 0.4 µg/mL (≈ 0.942 µM)

SMILES: O=C(O)c1cnc2c(OCc3ccccc3)cccn2c1=O [Compound A, 9-Benzyloxy-4-oxo-pyrido[1,2-a]pyrimidine-3-carboxylic acid, reference compound]
- IC50 [1]: ≥ 10 µg/mL
- antagonistic effect on SRS-A as represented by leukotriene D4 (leukotriene D4): no antagonistic effect on SRS-A

SMILES: CCCc1c(OCc2cccn3c(=O)c(CCC(=O)O)cnc23)ccc(C(C)=O)c1O [Example 7, 3-[9-(4-Acetyl-3-hydroxy-2-n-propylphenoxymethyl)-4-oxo-pyrido[1,2-a]pyrimidin-3-yl]propionic acid potassium salt]
- Antagonistic effect on leukotriene D4 IC50 ([1]; potassium salt): 0.03 µg/mL

SMILES: CCCc1c(OCc2cccn3c(=O)c(CCC(=O)O)cnc23)ccc(C(C)=O)c1O [Example 4, 3-[9-(4-Acetyl-3-hydroxy-2-n-propylphenoxymethyl)-4-oxo-pyrido[1,2-a]pyrimidin-3-yl]propionic acid]
- LD50 ([2]; intravenous): ≥ 200 mg/kg
- LD50 ([2]; oral): ≥ 4000 mg/kg
- Antagonistic effect on leukotriene D4 IC50 [1]: 0.01 µg/mL
- LD50 ([3]; intravenous): ≥ 100 mg/kg
- LD50 ([3]; oral): ≥ 4000 mg/kg

SMILES: CCCc1c(OCc2cccn3c(=O)c(CC(=O)O)cnc23)ccc(C(C)=O)c1O [Example 2, [9-(4-Acetyl-3-hydroxy-2-n-propylphenoxymethyl)-4-oxo-pyrido[1,2-a]pyrimidin-3-yl]acetic acid]
- LD50 ([2]; intravenous): ≥ 200 mg/kg
- LD50 ([2]; oral): ≥ 4000 mg/kg
- IC50 [1]: 0.04 µg/mL (≈ 0.0975 µM)
- LD50 ([3]; intravenous): ≥ 100 mg/kg
- LD50 ([3]; oral): ≥ 4000 mg/kg

SMILES: CCCc1c(OCc2c(C)ccn3c(=O)c(CC(=O)O)cnc23)ccc(C(C)=O)c1O [Example 3, [9-(4-Acetyl-3-hydroxy-2-n-propylphenoxymethyl)-8-methyl-4-oxo-pyrido[1,2-a]pyrimidin-3-yl]acetic acid]
- IC50 [1]: 0.8 µg/mL (≈ 1.88 µM)
